Data published in PubChem BioAssay (NCI).
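Grown in 96-well plates, cells were treated for 48 hours with each compound at five concentrations. Insufficient inhibition: endpoint recorded as highest concentration tested. Here, GI50 denotes the concentration required for 50% inhibition of growth. TGI: concentration producing complete growth inhibition.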

Columns and labels:
Experiment in all cases: inhibition of tumour cell growth, NCI panel, 48 h; in the data active = GI50 below about 0.43 µM; inactive = the rest
[1] = test system: CAKI-1 renal
[2] = test system: SK-MEL-28 melanoma
[3] = test system: OVCAR-3 ovarian
[4] = test system: 786-0 renal
[5] = test system: HL-60(TB) leukemia
[6] = test system: SN12C renal
[7] = test system: HCT-116 colon
[8] = test system: NCI/ADR-RES ovarian
[9] = test system: MDA-MB-231 breast
[10] = test system: RPMI-8226 leukemia
[11] = test system: NCI-H460 lung
[12] = test system: NCI-H23 lung
[13] = test system: TK-10 renal
[14] = test system: SR leukemia
[15] = test system: NCI-H522 lung
[16] = test system: A498 renal
[17] = test system: MALME-3M melanoma
[18] = test system: SK-MEL-5 melanoma
[19] = test system: HCT-15 colon
[20] = test system: MOLT-4 leukemia
[21] = test system: HOP-92 NSCLC
[22] = test system: OVCAR-5 ovarian
[23] = test system: RXF 393 renal
[24] = test system: IGROV1 ovarian
[25] = test system: UACC-62 melanoma
[26] = test system: OVCAR-8 ovarian
[27] = test system: LOX IMVI melanoma
[28] = test system: SF-268 CNS
[29] = test system: SW-620 colon
[30] = test system: SK-MEL-2 melanoma
[31] = test system: SF-295 CNS
[32] = test system: HCC-2998 colon
[33] = test system: U251 CNS
[34] = test system: DU-145 prostate
[35] = test system: CCRF-CEM leukemia
[36] = test system: K-562 leukemia
[37] = test system: UO-31 renal
[38] = test system: M14 melanoma
[39] = test system: MCF7 breast
[40] = test system: BT-549 breast
[41] = test system: OVCAR-4 ovarian
[42] = test system: HS 578T breast
[43] = test system: MDA-MB-435
[44] = test system: SNB-19 CNS
[45] = test system: KM12 colon
[46] = test system: UACC-257 melanoma
[47] = test system: SNB-75 CNS
[48] = test system: PC-3 prostate
[49] = test system: ACHN renal
[50] = test system: SF-539 CNS
[51] = test system: EKVX NSCLC
[52] = test system: HT29 colon
[53] = test system: NCI-H226 lung
[54] = test system: SK-OV-3 ovarian
[55] = test system: A549 NSCLC
[56] = test system: COLO 205 colon
[57] = test system: HOP-62 NSCLC

CN1CCN(CCOc2ccc(-c3cnc4c(-c5cccc(F)c5F)cnn4c3)cc2)CC1
3.26 µM: TGI [2]
5.26 µM: TGI [26]
2.94 µM: TGI [33]
2.73 µM: TGI [47]
3.36 µM: TGI [9]
active: GI50 [14] 0.282 µM
3.49 µM: TGI [23] | TGI [46]
3.75 µM: TGI [51]
5.24 µM: TGI [28]
26.4 µM: TGI [21]
3.15 µM: TGI [40]
inactive: GI50 [1] 1.52 µM | GI50 [2] 1.77 µM | GI50 [3] 1.71 µM | GI50 [4] 1.63 µM | GI50 [5] 1.91 µM | GI50 [6] 2.08 µM | GI50 [7] 1.66 µM | GI50 [8] 2.21 µM | GI50 [9] 1.6 µM | GI50 [10] 1.45 µM | GI50 [11] 1.67 µM | GI50 [12] 1.7 µM | GI50 [13] 2.01 µM | GI50 [15] 1.59 µM | GI50 [16] 5.41 µM | GI50 [17] 1.53 µM | GI50 [18] 1.67 µM | GI50 [19] 1.48 µM | GI50 [20] 1.6 µM | GI50 [21] 4.14 µM | GI50 [22] 1.99 µM | GI50 [23] 1.69 µM | GI50 [24] 1.61 µM | GI50 [25] 1.84 µM | GI50 [26] 2.1 µM | GI50 [27] 1.8 µM | GI50 [28] 2.15 µM | GI50 [29] 1.86 µM | GI50 [30] 15.5 µM | GI50 [31] 1.8 µM | GI50 [32] 11.7 µM | GI50 [33] 1.44 µM | GI50 [34] 1.69 µM | GI50 [35] 1.55 µM | GI50 [36] 1.66 µM | GI50 [37] 1.25 µM | GI50 [38] 1.71 µM | GI50 [39] 1.32 µM | GI50 [40] 1.57 µM | GI50 [41] 1.28 µM | GI50 [42] 1.91 µM | GI50 [43] 1.68 µM | GI50 [44] 1.91 µM | GI50 [45] 1.72 µM | GI50 [46] 1.77 µM | GI50 [47] 1.41 µM | GI50 [48] 1.96 µM | GI50 [49] 1.62 µM | GI50 [50] 1.74 µM | GI50 [51] 1.59 µM
4.67 µM: TGI [6]
2.55 µM: TGI [37]
19.7 µM: TGI [16]
3.61 µM: TGI [25]
3.19 µM: TGI [11]
24.7 µM: TGI [32]
3.88 µM: TGI [44]
3.07 µM: TGI [4] | TGI [18] | TGI [43]
3.53 µM: TGI [20] | TGI [36]
3.81 µM: TGI [35]
3.34 µM: TGI [27]
3.62 µM: TGI [13]
2.95 µM: TGI [39] | TGI [41]
5.64 µM: TGI [48]
5.49 µM: TGI [8]
3.17 µM: TGI [50]
4.74 µM: TGI [42]
2.97 µM: TGI [49]
4.01 µM: TGI [10]
3.39 µM: TGI [45]
31 µM: TGI [30]
3.59 µM: TGI [29]
3.44 µM: TGI [34]
3.04 µM: TGI [7]
3.42 µM: TGI [3]
4.43 µM: TGI [22]
3.79 µM: TGI [5]
3.27 µM: TGI [15] | TGI [24]
2.91 µM: TGI [1] | TGI [19]
3.33 µM: TGI [12] | TGI [31]
3.2 µM: TGI [38]
3.01 µM: TGI [17]
1.16 µM: TGI [14]

C[C@H](Nc1ccc2c(c1)OCCn1cc(N3C(=O)OC[C@H]3C(F)F)nc1-2)C(N)=O
0.215 µM: TGI [24]
10.2 µM: TGI [16]
45.8 µM: TGI [23]
68.1 µM: TGI [42]
active: GI50 [52] 0.153 µM | GI50 [54] 0.0307 µM | GI50 [5] 0.413 µM | GI50 [21] 0.183 µM | GI50 [22] 0.421 µM | GI50 [24] 0.0199 µM | GI50 [39] 0.0354 µM | GI50 [47] 0.0619 µM
inactive: GI50 [1] 4.88 µM | GI50 [53] > 62 µM | GI50 [2] 7.3 µM | GI50 [3] 6.26 µM | GI50 [4] 9.95 µM | GI50 [6] 13 µM | GI50 [7] 17.1 µM | GI50 [8] > 69.9 µM | GI50 [9] 16.4 µM | GI50 [10] 31.3 µM | GI50 [11] 1.08 µM | GI50 [55] 4.82 µM | GI50 [12] 38.5 µM | GI50 [13] 0.517 µM | GI50 [14] 38.6 µM | GI50 [15] > 100 µM | GI50 [16] 2.09 µM | GI50 [17] > 20.7 µM | GI50 [56] 2.3 µM | GI50 [18] 20.8 µM | GI50 [19] 0.52 µM | GI50 [20] 2.89 µM | GI50 [23] 5.56 µM | GI50 [25] 3.05 µM | GI50 [26] > 68.3 µM | GI50 [27] 4.8 µM | GI50 [28] 29 µM | GI50 [29] 20.5 µM | GI50 [30] > 100 µM | GI50 [31] 7.8 µM | GI50 [32] 1.92 µM | GI50 [33] > 77.6 µM | GI50 [34] 20.3 µM | GI50 [35] 7.93 µM | GI50 [36] > 100 µM | GI50 [37] 1.57 µM | GI50 [38] 68.5 µM | GI50 [40] 5.4 µM | GI50 [57] 17.5 µM | GI50 [41] 79.4 µM | GI50 [42] 1.77 µM | GI50 [43] 25.6 µM | GI50 [44] 25.3 µM | GI50 [45] 46.9 µM | GI50 [46] 11.5 µM | GI50 [48] 3.81 µM | GI50 [49] 5 µM | GI50 [50] 3.12 µM | GI50 [51] 4.91 µM
0.809 µM: TGI [54]
> 82.6 µM: TGI [22]
16.4 µM: TGI [21]
> 100 µM: TGI [1] | TGI [52] | TGI [53] | TGI [2] | TGI [3] | TGI [4] | TGI [5] | TGI [6] | TGI [7] | TGI [8] | TGI [10] | TGI [11] | TGI [55] | TGI [12] | TGI [14] | TGI [15] | TGI [17] | TGI [56] | TGI [18] | TGI [19] | TGI [20] | TGI [25] | TGI [26] | TGI [28] | TGI [29] | TGI [30] | TGI [31] | TGI [32] | TGI [33] | TGI [34] | TGI [35] | TGI [36] | TGI [37] | TGI [38] | TGI [39] | TGI [40] | TGI [57] | TGI [41] | TGI [43] | TGI [44] | TGI [45] | TGI [46] | TGI [48] | TGI [49] | TGI [51]
65.3 µM: TGI [9]
5.12 µM: TGI [47]
43.8 µM: TGI [50]
40.4 µM: TGI [27]
> 91.2 µM: TGI [13]
